The test system of one data set is VCaP tumor xenograft. On the procedure: (§1) Four week-old male SCID C.B17 mice were procured from a breeding colony at University of Michigan. All procedures involving mice were approved by the University Committee on Use and Care of Animals (UCUCA) at the University of Michigan and conform to all regulatory standards. Mice were anesthetized using 2% Isoflurane (inhalation) and 2×10^6 VCaP prostate cancer cells suspended in 100 μl of PBS with 50% Matrigel (BD Biosciences) were implanted subcutaneously into the dorsal flank on both sides of the mice. […] Growth in tumor volume was recorded using digital calipers and tumor volumes were estimated using the formula (π/6) (L×W^2), where L=length of tumor and W=width. Loss of body weight during the course of the study was also monitored. At the end of the studies mice were sacrificed and tumors extracted and weighed. Additionally, femur bone marrow, liver and spleen were harvested to examine spontaneous metastasis by detecting human-Alu sequence. […] All procedures involving mice were approved by the University Committee on Use and Care of Animals (UCUCA) at the University of Michigan and conform to all regulatory standards.

Another data set relates to AR. Kind of data set: ChIP-seq of AR in DHT-stimulated VCaP cells. The data set is classed as cell-based. The note with it: DHT 10 nM plus JQ1 500 nM, MDV3100 10 μM or Bicalutamide 25 μM, FIG. 17. On the procedure:
(§2) The ChIP assays for BRD2, BRD3, BRD4, AR, RNA PolII, ERG and H3K27ac were performed using HighCell ChIP kit (Diagenode) according to manufacturer's protocol. […] Next, cells were cross-linked for 10 min. with 1% formaldehyde. […] Chromatin equivalent to 5×10^6 cells were used for ChIP using different antibodies. ChIP DNA was isolated (IPure Kit, Diagenode) from samples by incubation with the antibody at 4° C. overnight followed by wash and reversal of cross-linking. The ChIP-seq sample preparation for sequencing was performed according to the manufacturer's instructions (Illumina). […] A single A-base was added to fragment ends by Klenow fragment (3′ to 5′ exo minus; NEB) followed by ligation of Illumina adaptors (Quick ligase, NEB). The adaptor-modified DNA fragments were enriched by PCR using the Illumina Barcode primers and Phusion DNA polymerase (NEB). PCR products were size selected using 3% NuSieve agarose gels (Lonza) followed by gel extraction using QIAEX II reagents (QIAGEN). Libraries were quantified with the Bioanalyzer 2100 (Agilent) and sequenced on the Illumina HiSeq 2000 Sequencer (100 nucleotide read length).
For enrichment plots shown in FIGS. 17, 19 and 20, identified peaks for each sample are centered by peak summit and average coverage per million was counted within 1500 bp relative to the peak center.

Data set [1] concerns MYC signature. Kind of data set: Gene expression array, GSEA of MYC signature, LNCaP. The note with it: LNCaP after JQ1 treatment. The data set is classed as cell-based. The method, then: (§3) Cells treated with only vehicle or 10 nM DHT served as controls. […] Expression profiling was performed using the Agilent Whole Human Genome Oligo Microarray (SantaClara, Calif.) according to the manufacturer's protocol. All samples were run in technical duplicates or quadruplets against control. Over- and under-expressed gene sets were generated by filtering to include only 2-fold average over- or underexpression (Log ratio with p<0.001) in all hybridizations.

The test system of data set [2] is MYC signature. The experiment in a line: Gene expression array, GSEA of MYC signature, DU145. It is filed as cell-based. Particulars: DU145 after JQ1 treatment. On the procedure: as §3
A further data set relates to BRD2/3/4. Kind of data set: ChIP-seq of BRD2/3/4 in VCaP cells. It is filed as cell-based. The note with it: 500 nM, 12 h. The method, then: as §2
The subject of data set [3] is MYC signature. The experiment in a line: Gene expression array, GSEA of MYC signature, 22RV1. The data set is classed as cell-based. The note with it: 22RV1 after JQ1 treatment. The method, then:
as §3

The test system of the next data set is VCaP or LNCaP cells. The experiment in a line: Matrigel invasion assay, VCaP or LNCaP cells. It is filed as cell-based. Particulars: 500 nM. On the procedure: Medium containing 10% FBS in the lower chamber served as chemoattractant. […] After 48 h, the non-invading cells and EC matrix were gently removed with a cotton swab and invasive cells located on the lower side of the chamber were stained with crystal violet, air dried, photographed and counted.

In a further data set the test system is AR-positive cells. Kind of data set: Cell cycle analysis and apoptosis (cleaved PARP immunoblot). The note with it: FIG. 2. It is filed as cell-based. The method, then:
For cell cycle analysis, cells were washed 48 h post-treatment with PBS and fixed in 70% ethanol overnight. The cells were washed again with PBS, stained with propidium iodide and analyzed by flow cytometry.
For Western blot analysis, 200 ug total protein extract was boiled in sample buffer and 10-20 μg aliquots were separated by SDS-PAGE and transferred onto Polyvinylidene Difluoride membrane (GE Healthcare). The membrane was incubated for one hour in blocking buffer [Tris-buffered saline, 0.1% Tween (TBS-T), 5% nonfat dry milk] followed by incubation overnight at 4° C. with the primary antibody. Following a wash with TBS-T, the blot was incubated with horseradish peroxidase-conjugated secondary antibody and signals were visualized by enhanced chemiluminescence system as per manufacturer's protocol (GE Healthcare).

The test system of another data set is VCaP xenograft model. Kind of data set: Spontaneous metastasis in the VCaP xenograft model (human Alu qPCR). The data set is classed as in vivo, mice. The note with it: femur, liver and spleen; JQ1 50 mg/kg, MDV3100 10 mg/kg. On the procedure:
as §1

In data set [4] the test system is VCaP prostate cancer cells. Kind of data set: Cell growth inhibition, VCaP prostate cancer cells (Cell-Titer GLO). It is filed as cell-based. Particulars: 8 days; FIG. 22. On the procedure:
For prostate cancer cell lines, VCaP prostate cancer cells were grown in DMEM with Glutamax (Gibco) supplemented with 10% FBS (Invitrogen) in 5% CO2 cell culture incubator. All cell lines were tested and found to be free of mycoplasma contamination. Cells were seeded in 96-well plates at 2,000-10,000 cells per well (optimum density for growth) in a total volume of […] media containing 10% FBS. Serially diluted compounds in […] media were added to the cells 12 h later. […] The values were normalized and IC50 was calculated using GraphPad Prism software.
Cells were seeded in 96-well plates at 2000-10,000 cells/well (optimum density for growth) in a total volume of 100 μl media containing 10% FBS. Serially diluted compounds in 100 μl media were added to the cells 12 h later. Following 96 h. incubation, cell viability was assessed by Cell-Titer GLO (Promega). The values were normalized and IC50 was calculated using GraphPad Prism software. […] After 12 days cells were fixed with methanol, stained with crystal violet and photographed. For colorimetric assays, the stained wells were treated with 500 μl 10% acetic acid and the absorbance was measured at 560 nm using a spectrophotometer.

Where [5] appears, read: gene set SCHLOSSER_MYC_AND_SERUM_RESPONSE_SYNERGY.
Where [6] appears, read: gene set SCHLOSSER_MYC_TARGETS_AND_SERUM_RESPONSE_UP.
Where [7] appears, read: gene set SCHUHMACHER_MYC_TARGETS_UP.

In the case of `Cc1sc2c(c1C)C(c1ccc(Cl)cc1)=N[C@@H](CC(=O)OC(C)(C)C)c1nnc(C)n1-2` [JQ1], in the data set on VCaP tumor xenograft (VCaP tumor-bearing mice, JQ1 50 mg/kg, MDV3100 10 mg/kg, 5 days/week, FIGS. 23-25), the tumor volume/weight result was “significant reduction in tumor volume/weight”. In the data set on VCaP tumor xenograft (mouse, in vivo), the tolerability entry is “well tolerated”. Also, the “recruitment of AR to target loci” value with AR was “block AR recruitment to a level almost equivalent to MDV3100”. The NES with MYC signature [1] (gene set MYC_UP.V1_UP) is listed as −2.068; in the data set with MYC signature [1] (setting [5]), −1.751; in the data set on MYC signature [1] (setting [6]) it was −1.957; in the data set with MYC signature [1] (setting [7]) it was −2.403; with MYC signature [2] (gene set MYC_UP.V1_UP), −0.952; in the data set on MYC signature [2] (setting [5]) it was −1.085. Further, the NES in the data set with MYC signature [2] (setting [6]) was −0.734; in the data set on MYC signature [2] (setting [7]) it was −1.086; with MYC signature [3] (gene set MYC_UP.V1_UP), −1.712; in the data set with MYC signature [3] (setting [5]) it was −1.521; in the data set on MYC signature [3] (setting [6]), 1.353; in the data set with MYC signature [3] (setting [7]), −1.851. Further, the “recruitment of BRD2/3/4 to the chromatin” value in the data set on BRD2/3/4 is “reduction in the recruitment”. The cell invasion result with VCaP or LNCaP cells is “inhibited invasion”. In addition, the “cell cycle arrest and apoptosis” value with AR-positive cells was “induced G0-G1 arrest, apoptosis”. Also, the spontaneous metastasis result with VCaP xenograft model is “no evidence of metastasis”. Besides, the “VCaP cell viability in vitro” value in data set [4] is given as “suppression of cell growth at sub-micromolar concentrations”.

The values are drawn from patent US9580430B2, “9H-pyrimido[4,5-B]indoles and related analogs as BET bromodomain inhibitors” (THE REGENTS OF THE UNIVERSITY OF MICHIGAN, priority 2014, dated 2017).
